Measured values reported in patent US9000022B2 (Exelixis Patent Company LLC, priority 2005, dated 2015).

Test system: LXRα and/or LXRβ
Experiment: Co-transfection assay (LXRE luciferase reporter, CV-1 cells)
Assay type: cell-based, human
Details: tested as described in Example 33; IC50 or EC50 for LXRα and/or LXRβ, isoform not specified; read-out: activity (IC50 or EC50 for LXR)
How it was run: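 CV-1 cells transiently co-transfected with full-length human LXRα or LXRβ plus RXRα, an LXRE×1-Tk-luciferase reporter and a β-galactosidase control. Compounds incubated 20 h at 37 °C (≤1% DMSO; screen at 10 μM final); luciferase read after lysis. EC50/IC50 from 8-point half-log curves (4 wells per point, ≥3 experiments); efficacy relative to a reference agonist high control and DMSO.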

IC50 or EC50 (potency, activation or inhibition) [µM]	Compound
< 1	CC(C)(CO)NC(=O)c1cn(-c2ccc(-c3cccc(C(C)(C)O)c3)cc2Cl)c(-c2c(Cl)cccc2Cl)n1 [Example 480, 1-(3-chloro-3′-(2-hydroxypropan-2-yl)biphenyl-4-yl)-2-(2,6-dichlorophenyl)-N-(1-hydroxy-2-methylpropan-2-yl)-1H-imidazole-4-carboxamide]
< 1	CC(C)(CO)NC(=O)c1cn(-c2ccc(-c3cccc(S(C)(=O)=O)c3)cc2)c(-c2c(Cl)cccc2Cl)n1 [Example 481, 2-(2,6-dichlorophenyl)-N-(1-hydroxy-2-methylpropan-2-yl)-1-(3′-(methylsulfonyl)biphenyl-4-yl)-1H-imidazole-4-carboxamide]
< 1	CCS(=O)(=O)c1cccc(-c2ccc(-n3cc(C(C)(C)O)nc3Cc3cc(Cl)ccc3F)cc2)c1 [Example 482, 2-(2-(5-chloro-2-fluorobenzyl)-1-(3′-(ethylsulfonyl)biphenyl-4-yl)-1H-imidazol-4-yl)propan-2-ol]
